Results: ChEMBL document CHEMBL3046298, “Synthesis and metal ion binding activity of methyl 12-amino-13-nitro-7-oxo dehydrodeisopropylabietate derivatives” (Med Chem Res, 2012)

Experiments:
[1] = Metal chelating activity of the compound assessed as formation of iron complex by fluorescence quenching assay; type: physicochemical
[2] = Metal chelating activity of the compound assessed as formation of copper complex by fluorescence quenching assay; type: physicochemical

Row | Ka [1] [L/mol] | Ka [2] [L/mol] | SMILES
1 | 165 | 89.2 | COC(=O)[C@]1(C)CCC[C@]2(C)c3cc(Nc4ccc(OC)cc4)c([N+](=O)[O-])cc3C(=O)C[C@@H]12
2 | 122.7 | 60.7 | COC(=O)[C@]1(C)CCC[C@]2(C)c3cc(Nc4ccc(C)cc4)c([N+](=O)[O-])cc3C(=O)C[C@@H]12
3 | 106.9 | 60.7 | COC(=O)[C@]1(C)CCC[C@]2(C)c3cc(Nc4ccccc4)c([N+](=O)[O-])cc3C(=O)C[C@@H]12
4 | 305.9 | 97.6 | COC(=O)[C@]1(C)CCC[C@]2(C)c3cc(NCCN)c([N+](=O)[O-])cc3C(=O)C[C@@H]12
5 | 108 | 70.3 | COC(=O)[C@]1(C)CCC[C@]2(C)c3cc(NCCO)c([N+](=O)[O-])cc3C(=O)C[C@@H]12
6 | 103.6 | 175.6 | COC(=O)[C@]1(C)CCC[C@]2(C)c3cc(NC(C)(C)C)c([N+](=O)[O-])cc3C(=O)C[C@@H]12
7 | 181.7 | 137.2 | CCCCNc1cc2c(cc1[N+](=O)[O-])C(=O)C[C@H]1[C@](C)(C(=O)OC)CCC[C@]21C
8 | 168.3 | 102.9 | COC(=O)[C@]1(C)CCC[C@]2(C)c3cc(NC(C)C)c([N+](=O)[O-])cc3C(=O)C[C@@H]12
9 | 135.7 | 61.7 | CCCNc1cc2c(cc1[N+](=O)[O-])C(=O)C[C@H]1[C@](C)(C(=O)OC)CCC[C@]21C
10 | 138.3 | 81.3 | CCNc1cc2c(cc1[N+](=O)[O-])C(=O)C[C@H]1[C@](C)(C(=O)OC)CCC[C@]21C
11 | 186 | 107 | CNc1cc2c(cc1[N+](=O)[O-])C(=O)C[C@H]1[C@](C)(C(=O)OC)CCC[C@]21C
